The values that follow come from ChEMBL document CHEMBL1158539, “Synthesis and biological activity of 2H-quinolizin-2-one based p38alpha MAP kinase inhibitors” (Bioorg Med Chem Lett, 2010).

The subject of series [1] is Rattus norvegicus. Briefly: Antiarthritic activity in rat assessed as reduction of LPS-induced TNFalpha level at 0.03 mg/kg after 4 hrs. The class given is functional. Also noted: scale not given: the % may be the effect or the level left.
Series [2] has as its system Rattus norvegicus. Briefly: Antiarthritic activity in rat assessed as reduction of LPS-induced TNFalpha level at 10 mg/kg after 24 hrs. The class given is functional, organism-based. Set-up: dose 10 mg/kg.
The nature of series [3]: AUC in monkey at 0.25 mg/kg, iv and 2 mg/kg, po. The series is classed as ADME, organism-based, Macaca mulatta. The conditions noted are these: rhesus monkey, plasma.
The nature of series [4]: Clearance in rat at 1 mg/kg, iv and 2 mg/kg, po. The series is classed as ADME, organism-based. The conditions noted are these: in vivo.
A short description of series [5]: Clearance in dog at 0.25 mg/kg, iv and 2 mg/kg, po. The class given is ADME, organism-based, Canis lupus familiaris. Particulars: in vivo.
Series [6] has as its system Rattus norvegicus. The series can be described thus: Antiarthritic activity in rat assessed as reduction of LPS-induced TNFalpha level at 30 mg/kg after 24 hrs. The class given is functional, organism-based. Set-up: dose 30 mg/kg.
A short description of series [7]: Oral bioavailability in dog at 2 mg/kg. The class given is ADME, organism-based, Canis lupus familiaris. The conditions noted are these: in vivo.
Series [8] concerns Rattus norvegicus. The series can be described thus: Antiarthritic activity in rat assessed as reduction of LPS-induced TNFalpha level at 3 mg/kg after 4 hrs. The series is classed as functional. Set-up: scale not given: the % may be the effect or the level left.
Series [9] can be described thus: AUC in rat at 1 mg/kg, iv and 2 mg/kg, po. The class given is ADME, organism-based. Particulars: plasma.
Series [10] in a line: Clearance in monkey at 0.25 mg/kg, iv and 2 mg/kg, po. The series is classed as ADME, organism-based, Macaca mulatta. The conditions noted are these: rhesus monkey, in vivo.
The nature of series [11]: Half life in rat at 1 mg/kg, iv and 2 mg/kg, po. The series is classed as ADME, organism-based. The conditions noted are these: in vivo.
The subject of series [12] is Rattus norvegicus. Briefly: Antiarthritic activity in rat assessed as reduction of LPS-induced TNFalpha level at 3 mg/kg after 24 hrs. The series is classed as functional, organism-based. Set-up: dose 3 mg/kg.
Series [13] in a line: Half life in dog at 0.25 mg/kg, iv and 2 mg/kg, po. Particulars: in vivo. The series is classed as ADME, organism-based, Canis lupus familiaris.
Series [14] can be described thus: Oral bioavailability in rat at 2 mg/kg. The class given is ADME, organism-based. The conditions noted are these: in vivo.
For series [15], the system named is Rattus norvegicus. The series can be described thus: Antiarthritic activity in rat assessed as reduction of LPS-induced TNFalpha level at 1 mg/kg after 24 hrs. Set-up: dose 1 mg/kg. The class given is functional, organism-based.
Series [16] can be described thus: Half life in monkey at 0.25 mg/kg, iv and 2 mg/kg, po. The class given is ADME, organism-based, Macaca mulatta. Particulars: rhesus monkey, in vivo.
Series [17] in a line: Oral bioavailability in monkey at 2 mg/kg. The series is classed as ADME, organism-based, Macaca mulatta. Particulars: rhesus monkey, in vivo.
Series [18] concerns Rattus norvegicus. Briefly: Antiarthritic activity in rat assessed as reduction of LPS-induced TNFalpha level at 1 mg/kg after 4 hrs. The series is classed as functional. Set-up: scale not given: the % may be the effect or the level left.
A short description of series [19]: AUC in dog at 0.25 mg/kg, iv and 2 mg/kg, po. The class given is ADME, organism-based, Canis lupus familiaris. Particulars: plasma.
The test system of the next series is THP-1. The series can be described thus: cells. Particulars: Homo sapiens, THP-1, 4 h.
For series [20], the target named is T1, Nuclear receptor subfamily 1 group I member 2 (Homo sapiens, UniProt O75469).
T1 sequence (O75469 whole entry): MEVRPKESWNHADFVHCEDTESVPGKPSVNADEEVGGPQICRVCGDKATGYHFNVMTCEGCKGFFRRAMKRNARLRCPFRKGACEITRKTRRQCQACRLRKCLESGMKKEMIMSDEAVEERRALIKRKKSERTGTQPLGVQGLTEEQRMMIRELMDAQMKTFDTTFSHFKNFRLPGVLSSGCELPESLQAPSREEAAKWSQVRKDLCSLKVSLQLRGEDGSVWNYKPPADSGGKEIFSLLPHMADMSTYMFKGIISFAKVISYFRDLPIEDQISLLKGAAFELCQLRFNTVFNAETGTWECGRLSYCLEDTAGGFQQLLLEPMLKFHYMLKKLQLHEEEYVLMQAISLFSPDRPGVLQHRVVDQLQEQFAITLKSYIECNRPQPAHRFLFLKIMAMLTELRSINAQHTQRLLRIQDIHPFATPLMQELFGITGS
The series can be described thus: Activation of PXR.

Series [21] relates to Blood. The series can be described thus: tissue or blood. Particulars: Homo sapiens.
Description: (§1) Inhibition of LPS-induced TNFalpha production in human whole blood
Series [22] concerns the target Mitogen-activated protein kinase 14 (Mus musculus, UniProt P47811).
Description: Inhibition of mouse p38alpha after 3 hrs by SPA method
Series [23] relates to Blood.
Description: as §1
The nature of series [24]: Half life in monkey. The class given is ADME, organism-based, Macaca mulatta. The conditions noted are these: rhesus monkey, in vivo.
Series [25] is described as follows: Lipophilicity, log D of the compound. The series is classed as physicochemical. The conditions noted are these: octanol/water.
A short description of series [26]: Half life in dog. The series is classed as ADME, organism-based, Canis lupus familiaris. Particulars: in vivo.
Series [27] concerns the target Voltage-gated inwardly rectifying potassium channel KCNH2 (Homo sapiens, UniProt Q12809).
Description: Displacement of labeled MK-499 from human ERG in HEK293 cells
Series [28] can be described thus: Displacement of labeled diltiazem from calcium channel in guinea-pig hind limb skeletal muscle homogenates.

Calls of active or inactive are those of the source. The rule behind the calls is not given here.

Mitogen-activated protein kinase 14, sequence (P47811 whole entry): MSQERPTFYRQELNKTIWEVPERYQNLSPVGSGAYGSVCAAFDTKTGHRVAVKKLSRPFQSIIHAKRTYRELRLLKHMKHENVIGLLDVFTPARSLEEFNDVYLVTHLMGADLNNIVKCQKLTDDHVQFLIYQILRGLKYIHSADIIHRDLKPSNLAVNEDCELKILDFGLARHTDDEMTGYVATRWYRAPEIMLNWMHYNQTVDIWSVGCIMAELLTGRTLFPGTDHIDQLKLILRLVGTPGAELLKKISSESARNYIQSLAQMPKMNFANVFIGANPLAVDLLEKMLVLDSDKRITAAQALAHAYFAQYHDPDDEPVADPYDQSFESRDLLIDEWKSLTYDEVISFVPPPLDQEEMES
Voltage-gated inwardly rectifying potassium channel KCNH2, sequence (Q12809 whole entry): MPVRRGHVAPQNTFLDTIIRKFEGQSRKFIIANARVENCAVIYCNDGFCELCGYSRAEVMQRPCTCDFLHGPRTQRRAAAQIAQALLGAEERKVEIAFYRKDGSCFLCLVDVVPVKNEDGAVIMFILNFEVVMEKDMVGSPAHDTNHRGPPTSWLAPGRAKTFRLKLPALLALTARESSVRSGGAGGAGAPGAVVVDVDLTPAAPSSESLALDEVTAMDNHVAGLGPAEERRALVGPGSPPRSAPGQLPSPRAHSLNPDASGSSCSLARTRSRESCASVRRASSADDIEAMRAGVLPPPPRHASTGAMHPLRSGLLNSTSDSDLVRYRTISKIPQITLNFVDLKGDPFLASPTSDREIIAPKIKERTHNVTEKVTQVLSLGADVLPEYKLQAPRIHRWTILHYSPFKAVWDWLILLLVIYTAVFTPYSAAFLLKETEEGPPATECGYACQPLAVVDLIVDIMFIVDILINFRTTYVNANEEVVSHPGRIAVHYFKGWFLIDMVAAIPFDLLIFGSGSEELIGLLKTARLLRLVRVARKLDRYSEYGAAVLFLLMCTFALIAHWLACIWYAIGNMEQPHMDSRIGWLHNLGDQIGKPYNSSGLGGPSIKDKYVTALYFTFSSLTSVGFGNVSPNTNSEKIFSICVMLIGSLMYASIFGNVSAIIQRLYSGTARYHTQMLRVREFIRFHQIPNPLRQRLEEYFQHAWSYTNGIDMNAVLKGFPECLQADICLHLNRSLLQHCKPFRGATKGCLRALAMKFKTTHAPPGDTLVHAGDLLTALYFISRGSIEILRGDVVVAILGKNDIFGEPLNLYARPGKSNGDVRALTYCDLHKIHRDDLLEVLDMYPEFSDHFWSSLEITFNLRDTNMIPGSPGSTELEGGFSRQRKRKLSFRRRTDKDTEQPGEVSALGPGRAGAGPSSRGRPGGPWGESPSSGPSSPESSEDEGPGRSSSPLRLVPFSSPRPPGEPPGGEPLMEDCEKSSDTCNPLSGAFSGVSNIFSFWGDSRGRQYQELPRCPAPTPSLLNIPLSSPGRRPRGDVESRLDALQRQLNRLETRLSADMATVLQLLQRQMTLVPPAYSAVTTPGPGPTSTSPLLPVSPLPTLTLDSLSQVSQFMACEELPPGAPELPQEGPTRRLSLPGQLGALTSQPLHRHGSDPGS
Description for THP-1: Inhibition of LPS-induced TNFalpha production in human THP1 cells after 4 hrs by ELISA

Usually AUC stands for the area under the concentration-time curve, a measure of exposure. As a reminder, the bioavailability is the share of a dose that reaches the circulation, judged against a reference dose that is usually intravenous. The half-life is how long it takes for the measured level to halve. For the compound `Cc1nnc(-c2ccc(F)c(-c3c(=O)ccn4c(-c5ccc(F)cc5F)cccc34)c2)o1`, the figures for the Activity with Rattus norvegicus [1], in the series with Rattus norvegicus [8] and in the series with Rattus norvegicus [18] were 50%, >90% and >90%, respectively. Moreover, the outcome in the series on Rattus norvegicus [2], in the series with Rattus norvegicus [6], in the series on Rattus norvegicus [12] and in the series on Rattus norvegicus [15] was Active. Further, the AUC turned out to be 23.9 µM·h in series [3], 21.7 µM·h in [9] and 58.6 µM·h in [19]. Moreover, the clearance in series [4] is 2.4 mL/min/kg; in series [5] it was 0.88 mL/min/kg; in series [10] it was 0.9 mL/min/kg. In addition, the figures for the bioavailability in series [7], in series [14] and in series [17] were 66%, 68% and 55%, respectively. Further, the half-life in [11] is 1.4 h; in series [13], 12 h; in [16], 9.5 h.

What is called IC50 is the concentration that inhibits the measured activity by half. A word on the EC50: it is the concentration giving half of the maximal effect. For the compound `Cc1noc(-c2cc(F)c(-c3c(=O)ccn4c(-c5ccc(F)cc5F)cccc34)c(F)c2)n1`, the IC50 in the series with THP-1 came out at 430 nM; in the series on Blood [21], 690 nM; in series [22], 8.8 nM. Moreover, the EC50 in [20] was > 30000 nM.

Regarding `N#Cc1cc(F)c(-c2c(=O)ccn3c(-c4ccc(F)cc4F)cccc23)c(F)c1`, the results for the IC50 (in the series with THP-1; in the series on Blood [23]; in series [22]) were 6490 nM, “Not Active” and 1.5 nM, respectively. Moreover, the EC50 in series [20] is > 30000 nM.

What is called logD is the decadic logarithm of the distribution of all forms, ionised or not, between an organic phase and buffer at a given pH. Turning to `O=c1ccn2c(-c3ccc(F)cc3F)cccc2c1-c1c(F)cccc1F`, the half-life in series [24] was > 100 h; in [26], 20 h. The compound further gave a logD in series [25] of 2.5.

`COC(=O)c1cc(F)c(-c2c(=O)ccn3c(-c4ccc(F)cc4F)cccc23)c(F)c1`: the IC50 was 6490 nM in the series with THP-1, “Not Active” in the series on Blood [23] and 1.5 nM in series [22]. The EC50 in series [20] was > 30000 nM.

As usually defined, the Ki is a dissociation constant, usually derived from enzyme kinetics or from competition with a known ligand. With `O=c1ccn2c(-c3ccc(F)cc3F)cccc2c1-c1cc(-c2nnco2)ccc1F`, the AUC in [3] was determined as 5.1 µM·h; in [9], 25.6 µM·h; in series [19], 49.3 µM·h. The IC50 was 25.4 nM in the series on THP-1, 45.4 nM in the series with Blood [21], 13 nM in series [22] and > 30000 nM in series [28]. Also, the clearance in series [4] stood at 3.1 mL/min/kg; in series [5], 0.49 mL/min/kg; in series [10] it was 3.6 mL/min/kg. In addition, the bioavailability came out at 45% in [7], 100% in series [14] and 47% in series [17]. Moreover, in [27], the inhibitory constant (Ki) is > 20000 nM. Further, the half-life in [11] is 1.8 h; in series [13], 30.4 h; in [16] it was 5.9 h.

As to `NC(=O)c1cc(F)c(-c2c(=O)ccn3c(-c4ccc(F)cc4F)cccc23)c(F)c1`, the IC50 with THP-1 turned out to be 180 nM; in the series on Blood [21], 980 nM; in series [22], 20 nM. In series [20], the EC50 was > 30000 nM.

With `Nc1nnc(-c2cc(F)c(-c3c(=O)ccn4c(-c5ccc(F)cc5F)cccc34)c(F)c2)o1`, the IC50 in the series on THP-1 is 270 nM; in the series on Blood [21], 1580 nM; in series [22], 6.8 nM. Further, the EC50 in series [20] was > 30000 nM.

In the case of `Nc1cc2c(ccc(=O)n2-c2c(F)cccc2F)c(-c2ccc(F)cc2F)n1`, the log distribution coefficient (logD) in series [25] was 2.7. For the same compound, the results for the IC50 in series [22] and in [28] were 0.6 nM and 4600 nM, respectively. In [27], this compound had a Ki of 5100 nM.

As for `O=C1NCc2c(-c3ccc(F)cc3F)cc(N3CCNCC3)cc2N1c1c(Cl)cccc1Cl`, the logD in series [25] came out at 4.2.

`O=c1ccn2c(-c3ccc(F)cc3F)cccc2c1-c1c(F)cc(-c2nnco2)cc1F`: the IC50 in the series with THP-1 came to 265 nM; in the series with Blood [21], 775 nM; in series [22], 5.3 nM. In addition, the EC50 in series [20] was > 30000 nM.
